Reference: patent US20220023273A1, “METHODS FOR TREATING SYMPTOMS AND DISORDERS ASSOCIATED WITH LYSOSOMAL STORAGE DISEASES” (GENZYME CORPORATION, priority 2019, published 2022)

Experiments:
Assay type in all cases: in vivo, human
[1] = tested on: glucosylceramide (GL-1), glucosylsphingosine (lyso-GL1); assay: GD3 clinical study: CSF and plasma biomarkers GL-1 and lyso-GL1; details: GD3, 15 mg/day oral + imiglucerase
Method: During the study patients were evaluated for safety and tolerability, CSF and plasma biomarkers (glucosylceramide, GL-1; glucosylsphingosine, lyso-GL1), pharmacokinetics, markers for systemic disease (spleen and liver volume measured by magnetic resonance imaging (MRI), platelet count, hemoglobin levels), indicia of interstitial lung disease (high resolution pulmonary computed tomography (CT)), and horizontal saccadic eye movement.
At baseline, the mean (±SD) GL-1 concentration in CSF was 7.1±2.8 ng/mL (range 4.4-11.1 ng/mL), while the mean (±SD) lyso-GL-1 concentration in CSF was 39.3±22.9 pg/mL (range 20.1-67.6 pg/mL). For comparison, the healthy GL-1 concentration in CSF is 4.5-5.9 ng/mL, and the healthy level of lyso-GL-1 in CSF is less than 5.0 pg/mL.

[2] = tested on: chitotriosidase (CHITO), GM3, GPNMB, ceramide; assay: GD3 clinical study: exploratory biomarkers; details: GD3, 15 mg/day oral + imiglucerase
Method: Four exploratory biomarkers were quantified in plasma, serum and/or CSF of GD3 patients at week 4 and week 26: chitotriosidase (CHITO; an enzyme known to be elevated in GD patients) was measured in CSF and serum; GM3 (a glycosphingolipid marker known to be elevated in GD patients) was measured in CSF and plasma; and glycoprotein nonmetastatic melanoma protein B (GPNMB; reportedly a biomarker of neuropathic GD3) was measured in CSF. The results are shown in the table below as percent change from baseline at week 4 and week 26 for each parameter:
In addition, exploratory biomarkers were quantified in CSF of GD3 patients: ceramide (the precursor of GL-1), chitotriosidase (CHITO), GM3, and GPNMB.

[3] = tested on: plasma GL-1, GL-3, and GM3; assay: Phase 1 Study 2: pharmacodynamics
Method: The study enrolled and randomized 36 healthy adults (19 men and 17 women) (n=9 each to group).
Pharmacodynamic endpoints (plasma GL-1, GL-3, and GM3 concentrations) were assessed on Days 1-5, 8, 11, 13, and 14, at 0 hours […]; and on Day 15, at 24 hours after the Day 14 dose.

CC(C)(NC(=O)O[C@@H]1CN2CCC1CC2)c1csc(-c2ccc(F)cc2)n1 [Compound 2, (S)-quinuclidin-3-yl (2-(2-(4-fluorophenyl)thiazol-4-yl)propan-2-yl)carbamate]
plasma and CSF biomarkers for GD-3 ([1]; 26 weeks): significant improvements | plasma and CSF biomarkers for GD-3 ([1]; 52 weeks): sustained significant improvements | GM3 in CSF ([2]; 4, 26 and 52 weeks, the four of six patients with measurable GM3 at baseline): undetectable | CSF concentrations of ceramide, CHITO or GPNMB ([2]; after 52 weeks): no significant changes | day on which maximal sustained GM3 decreases start ([3]; all Compound 2 dose groups): 13 days | Plasma GL-3 ([3]; all Compound 2 dose groups, low baseline values relative to LLOQ): decreased with time | plasma GL-1 and GM3 levels ([3]; healthy adults, 5, 10, 20 mg once daily 14 days): decreased from baseline time- and dose-dependently
